According to PMC9866191, “Novel 9-Benzylaminoacridine Derivatives as Dual Inhibitors of Phosphodiesterase 5 and Topoisomerase II for the Treatment of Colon Cancer” (Molecules, 2023):

Columns and labels:
Experiment in all cases: NCI-60 one-dose screen
Format in all cases: cell-based
SR = details: Homo sapiens, Leukemia panel, single dose 10^−5 M, read-out: Growth inhibition %
ACHN = details: Homo sapiens, Renal Cancer panel, single dose 10^−5 M, read-out: Growth inhibition %
SW-620 = details: Homo sapiens; SW-620, Colon Cancer panel; single dose 10^−5 M; read-out: Growth inhibition %
SK-MEL-5 = details: Homo sapiens; SK-MEL-5, Melanoma panel; single dose 10^−5 M; read-out: Growth inhibition %
HCC-2998 = details: Homo sapiens; HCC-2998, Colon Cancer panel; single dose 10^−5 M; read-out: Growth inhibition %
MCF7 = details: Homo sapiens; MCF7, Breast Cancer panel; single dose 10^−5 M; read-out: Growth inhibition %
PC-3 = details: Homo sapiens; PC-3, Prostate Cancer panel; single dose 10^−5 M; read-out: Growth inhibition %
U251 = details: Homo sapiens, U-251; U251, CNS Cancer panel; single dose 10^−5 M; read-out: Growth inhibition %
SNB-19 = details: Homo sapiens; SNB-19, CNS Cancer panel; single dose 10^−5 M; read-out: Growth inhibition %
NCI-H226 = details: Homo sapiens; NCI-H226, Non-small cell lung panel; single dose 10^−5 M; read-out: Growth inhibition %
A549/ATCC = details: Homo sapiens, Non-small cell lung panel, single dose 10^−5 M, read-out: Growth inhibition %
COLO 205 = details: Homo sapiens; COLO 205, Colon Cancer panel; single dose 10^−5 M; read-out: Growth inhibition %
SK-MEL-28 = details: Homo sapiens; SK-MEL-28, Melanoma panel; single dose 10^−5 M; read-out: Growth inhibition %
DU-145 = details: Homo sapiens; DU-145, Prostate Cancer panel; single dose 10^−5 M; read-out: Growth inhibition %
KM12 = details: Homo sapiens; KM12, Colon Cancer panel; single dose 10^−5 M; read-out: Growth inhibition %
SF-539 = details: Homo sapiens; SF-539, CNS Cancer panel; single dose 10^−5 M; read-out: Growth inhibition %
NCI/ADR-RES = details: Homo sapiens, Ovarian Cancer panel, single dose 10^−5 M, read-out: Growth inhibition %
BT-549 = details: Homo sapiens; BT-549, Breast Cancer panel; single dose 10^−5 M; read-out: Growth inhibition %
HCT-116 = details: Homo sapiens, read-out: Growth inhibition %
MDA-MB-468 = details: Homo sapiens; MDA-MB-468, Breast Cancer panel; single dose 10^−5 M; read-out: Growth inhibition %
K-562 = details: Homo sapiens, K562; K-562, Leukemia panel; single dose 10^−5 M; read-out: Growth inhibition %
NCI-H522 = details: Homo sapiens; NCI-H522, Non-small cell lung panel; single dose 10^−5 M; read-out: Growth inhibition %
UO-31 = details: Homo sapiens; UO-31, Renal Cancer panel; single dose 10^−5 M; read-out: Growth inhibition %
A498 = details: Homo sapiens; A498, Renal Cancer panel; single dose 10^−5 M; read-out: Growth inhibition %
SN12C = details: Homo sapiens, Renal Cancer panel, single dose 10^−5 M, read-out: Growth inhibition %
HOP-62 = details: Homo sapiens; HOP-62, Non-small cell lung panel; single dose 10^−5 M; read-out: Growth inhibition %
786-0 = details: Homo sapiens; 786-0, Renal Cancer panel; single dose 10^−5 M; read-out: Growth inhibition %
UACC-62 = details: Homo sapiens; UACC-62, Melanoma panel; single dose 10^−5 M; read-out: Growth inhibition %
RXF 393 = details: Homo sapiens; RXF 393, Renal Cancer panel; single dose 10^−5 M; read-out: Growth inhibition %
SK-OV-3 = details: Homo sapiens; SK-OV-3, Ovarian Cancer panel; single dose 10^−5 M; read-out: Growth inhibition %
CAKI-1 = details: Homo sapiens; CAKI-1, Renal Cancer panel; single dose 10^−5 M; read-out: Growth inhibition %
SF-295 = details: Homo sapiens; SF-295, CNS Cancer panel; single dose 10^−5 M; read-out: Growth inhibition %

Compound	inhibition at 10 µM (SR)	inhibition at 10 µM (ACHN)	inhibition at 10 µM (SW-620)	inhibition at 10 µM (SK-MEL-5)	inhibition at 10 µM (HCC-2998)	inhibition at 10 µM (MCF7)	inhibition at 10 µM (PC-3)	inhibition at 10 µM (U251)	inhibition at 10 µM (SNB-19)	inhibition at 10 µM (NCI-H226)	inhibition at 10 µM (A549/ATCC)	inhibition at 10 µM (COLO 205)	inhibition at 10 µM (SK-MEL-28)	inhibition at 10 µM (DU-145)	inhibition at 10 µM (KM12)	inhibition at 10 µM (SF-539)	inhibition at 10 µM (NCI/ADR-RES)	inhibition at 10 µM (BT-549)	inhibition at 10 µM (HCT-116)	inhibition at 10 µM (MDA-MB-468)	further results
COc1ccccc1CNc1c2ccccc2nc2ccccc12 [Compound 5, Acridin-9-yl-(2-methoxybenzyl)-amine]	90.1%	77.3%	77.9%	40.8%	61.1%	83.2%	56.8%	61.4%	64.2%	60.1%	65.8%	87.2%	20%	49.5%	67.1%	78.8%	65.2%	23%	87.3%	71.7%	inhibition at 10 µM (K-562): 89.9%; inhibition at 10 µM (NCI-H522): 37.6%; inhibition at 10 µM (UO-31): 66.3%; inhibition at 10 µM (A498): 86.7%; inhibition at 10 µM (SN12C): 65.3%; inhibition at 10 µM (HOP-62): 55.5%; inhibition at 10 µM (786-0): 60.7%; inhibition at 10 µM (UACC-62): 39.5%; inhibition at 10 µM (RXF 393): 69.4%; inhibition at 10 µM (SK-OV-3): 38.6%; inhibition at 10 µM (CAKI-1): 54.3%; inhibition at 10 µM (SF-295): 62.6%
COc1ccc2nc3ccccc3c(NCc3ccccc3)c2c1 [Compound 25, Benzyl-(2-methoxyacridin-9-yl)-amine]	95.7%	87.2%	80.5%	81.2%	136%	95.7%	71.3%	77.1%	75.8%	65.6%	81.8%	119%	50.3%	77.5%	63.5%	88.2%	81.7%	49.7%	85.2%	110%	inhibition at 10 µM (K-562): 94.2%; inhibition at 10 µM (NCI-H522): 65.4%; inhibition at 10 µM (UO-31): 86.2%; inhibition at 10 µM (A498): 114%; inhibition at 10 µM (SN12C): 77.5%; inhibition at 10 µM (HOP-62): 66.4%; inhibition at 10 µM (786-0): 77.7%; inhibition at 10 µM (UACC-62): 54.1%; inhibition at 10 µM (RXF 393): 94.1%; inhibition at 10 µM (SK-OV-3): 55.5%; inhibition at 10 µM (CAKI-1): 74.2%; inhibition at 10 µM (SF-295): 80.3%
